Source: ChEMBL document CHEMBL1770089, “Synthesis, structure-activity relationship of novel substituted 4H-chromen-1,2,3,4-tetrahydropyrimidine-5-carboxylates as potential anti-mycobacterial and anticancer agents” (2011)
Converted amounts (≈) assume the structure as drawn. The source made the active and inactive calls. No cut-off for these calls is given here.

Legend:
Assay type in all cases: functional
HeLa = experiment: Cytotoxicity against human HeLa cells after 48 hrs by MTT assay; set-up: concentration or dose not given beside the values
[1] = system: Mycobacterium tuberculosis; experiment: Antituberculosis activity against Mycobacterium tuberculosis H37Rv by agar dilution method
A549 = experiment: Cytotoxicity against human A549 cells after 48 hrs by MTT assay; set-up: concentration or dose not given beside the values
SK-N-SH = experiment: Cytotoxicity against human SK-N-SH cells after 48 hrs by MTT assay; set-up: concentration or dose not given beside the values

SMILES	Activity (HeLa)	MIC [1] [µM]	Activity (A549)	Activity (SK-N-SH)
COCCOC(=O)C1=C(C)NC(=O)NC1c1coc2ccc(-c3ccccc3)cc2c1=O (stereo not given)	33.5%	57.6 (≈ 25 µg/mL)	34.4%	13.4%
CCOC(=O)C1=C(C)NC(=O)NC1c1coc2ccc(Br)cc2c1=O (stereo not given)	32.8%	30.8 (≈ 12.5 µg/mL)	51.4%	31.1%
COCCOC(=O)C1=C(C)NC(=O)NC1c1coc2cc3occc3cc2c1=O (stereo not given)	37.6%	31.4 (≈ 12.5 µg/mL)	34.7%	34.7%
CCOC(=O)C1=C(C)NC(=O)NC1c1coc2ccc(-c3ccco3)cc2c1=O (stereo not given)	35.4%	15.9 (≈ 6.25 µg/mL)	34.5%	46.4%
CCOC(=O)C1=C(C(F)(F)F)NC(=O)NC1c1coc2cccc(C)c2c1=O (stereo not given)	61.3%	3.91 (≈ 1.55 µg/mL)	22%	35.9%
CCOC(=O)C1=C(C)NC(=O)NC1c1coc2ccc([N+](=O)[O-])cc2c1=O (stereo not given)	54.4%	4.18 (≈ 1.56 µg/mL)	inactive	28.7%
CCOC(=O)C1=C(CCl)NC(=O)NC1c1coc2ccccc2c1=O (stereo not given)	23.3%	34.5 (≈ 12.5 µg/mL)	30.7%	18.6%
CCOC(=O)C1=C(c2ccccc2)NC(=S)NC1c1coc2ccccc2c1=O (stereo not given)	33%	61.6 (≈ 25 µg/mL)	9.4%	1.9%
COCCOC(=O)C1=C(C)NC(=O)NC1c1coc2ccc(Br)cc2c1=O (stereo not given)	40.2%	28.7 (≈ 12.5 µg/mL)	29.9%	38.4%
COCCOC(=O)C1=C(C)NC(=O)NC1c1coc2c(ccc3occc32)c1=O (stereo not given)	61.2%	31.4 (≈ 12.5 µg/mL)	4.5%	8.4%
CCOC(=O)C1=C(C)NC(=O)NC1c1coc2c(ccc3occc32)c1=O (stereo not given)	42.4%	34 (≈ 12.5 µg/mL)	33.8%	inactive
CCOC(=O)C1=C(C)NC(=O)NC1c1coc2ccccc2c1=O (stereo not given)	16.6%	76.2 (≈ 25 µg/mL)	18.1%	19%
CCOC(=O)C1=C(C(F)(F)F)NC(=O)NC1c1coc2c(ccc3occc32)c1=O (stereo not given)	32.8%	3.67 (≈ 1.55 µg/mL)	27.5%	34.3%
CCOC(=O)C1=C(C)NC(=S)NC1c1coc2ccc(C)cc2c1=O (stereo not given)	43.2%	34.9 (≈ 12.5 µg/mL)	18.3%	7%
CCOC(=O)C1=C(C)NC(=S)NC1c1coc2ccc(-c3ccccc3)cc2c1=O (stereo not given)	40.9%	59.5 (≈ 25 µg/mL)	37.4%	25.4%
CCOC(=O)C1=C(C(F)(F)F)NC(=O)NC1c1coc2ccc(-c3ccccc3)cc2c1=O (stereo not given)	28.6%	3.39 (≈ 1.55 µg/mL)	31.3%	10.7%
CC[C@@H](CO)NCCN[C@@H](CC)CO [ETHAMBUTOL]		7.63 (≈ 1.56 µg/mL)		
CCOC(=O)C1=C(c2ccccc2)NC(=O)NC1c1coc2cc3occc3cc2c1=O (stereo not given)	59.1%	14.5 (≈ 6.25 µg/mL)	13.1%	inactive
CCOC(=O)C1=C(C)NC(=S)NC1c1coc2ccc(Br)cc2c1=O (stereo not given)	41.1%	29.7 (≈ 12.6 µg/mL)	43.5%	20%
COCCOC(=O)C1=C(C)NC(=S)NC1c1coc2ccccc2c1=O (stereo not given)	inactive	66.8 (≈ 25 µg/mL)	inactive	inactive

SMILES	Activity (HeLa)	MIC [1] [µM]	Activity (A549)	Activity (SK-N-SH)
COc1cccc2c1C(=O)c1c(O)c3c(c(O)c1C2=O)C[C@@](O)(C(=O)CO)C[C@@H]3O[C@H]1C[C@H](N)[C@H](O)[C@H](C)O1 [DOXORUBICIN]	86.5%		55%	31.8%
CCOC(=O)C1=C(c2ccccc2)NC(=O)NC1c1coc2ccc(C)cc2c1=O (stereo not given)	29.8%	30.9 (≈ 12.5 µg/mL)	18.6%	inactive
CCOC(=O)C1=C(C(F)(F)F)NC(=O)NC1c1coc2ccc(C)cc2c1=O (stereo not given)	33.5%	7.86 (≈ 3.12 µg/mL)	37.4%	45.5%
COCCOC(=O)C1=C(C)NC(=S)NC1c1coc2ccc(C)cc2c1=O (stereo not given)	17.4%	32.2 (≈ 12.5 µg/mL)	21.2%	22.8%
CCOC(=O)C1=C(c2ccccc2)NC(=O)NC1c1coc2ccccc2c1=O (stereo not given)	5.3%	64.1 (≈ 25 µg/mL)	15.4%	15%
CCOC(=O)C1=C(C)NC(=S)NC1c1coc2ccccc2c1=O (stereo not given)	49.3%	72.7 (≈ 25 µg/mL)	26.3%	32.7%
CCOC(=O)C1=C(c2ccccc2)NC(=O)NC1c1coc2ccc(-c3ccccc3)cc2c1=O (stereo not given)	inactive	25.9 (≈ 12.1 µg/mL)	inactive	inactive
CCOC(=O)C1=C(CCl)NC(=O)NC1c1coc2ccc(C)cc2c1=O (stereo not given)	81.4%	16.6 (≈ 6.26 µg/mL)	46.2%	55.3%
NNC(=O)c1ccncc1 [ISONIAZID]		0.66 (≈ 0.0905 µg/mL)		
CCOC(=O)C1=C(C)NC(=O)NC1c1coc2ccc(-c3ccccc3)cc2c1=O (stereo not given)	45.3%	30.7 (≈ 12.4 µg/mL)	7.2%	inactive
CCOC(=O)C1=C(C)NC(=O)NC1c1coc2cc3occc3cc2c1=O (stereo not given)	51.5%	34 (≈ 12.5 µg/mL)	29.6%	37.5%
CCOC(=O)C1=C(C)NC(=O)NC1c1coc2ccc(C)cc2c1=O (stereo not given)	16.6%	36.5 (≈ 12.5 µg/mL)	24.8%	1.7%
COCCOC(=O)C1=C(C)NC(=O)NC1c1coc2ccc(C)cc2c1=O (stereo not given)	40.2%	34.1 (≈ 12.7 µg/mL)	28.4%	35.6%
CCOC(=O)C1=C(c2ccccc2)NC(=S)NC1c1coc2ccc(C)cc2c1=O (stereo not given)	31.5%	14.9 (≈ 6.26 µg/mL)	27.2%	12.1%
CCOC(=O)C1=C(C)NC(=O)NC1c1coc2c([N+](=O)[O-])cccc2c1=O (stereo not given)	60.6%	4.18 (≈ 1.56 µg/mL)	47.6%	56%
CCOC(=O)C1=C(C(F)(F)F)NC(=O)NC1c1coc2cc3occc3cc2c1=O (stereo not given)	40.9%	7.38 (≈ 3.12 µg/mL)	21.8%	6.9%
O=C(O)c1cn(C2CC2)c2cc(N3CCNCC3)c(F)cc2c1=O [CIPROFLOXACIN]		9.44 (≈ 3.13 µg/mL)		
COCCOC(=O)C1=C(C)NC(=O)NC1c1coc2ccccc2c1=O (stereo not given)	38.5%	69.8 (≈ 25 µg/mL)	23.5%	23.9%
CCOC(=O)C1=C(C(F)(F)F)NC(=O)NC1c1coc2ccccc2c1=O (stereo not given)	29.2%	7.9 (≈ 3.02 µg/mL)	inactive	23.4%
CCOC(=O)C1=C(c2ccccc2)NC(=O)NC1c1coc2c(ccc3occc32)c1=O (stereo not given)	43.3%	14.5 (≈ 6.25 µg/mL)	33.3%	39.4%
